27 compounds from patent US8551984B2, “Aminopyrimidines as SYK inhibitors” (Merck Sharp & Dohme Corp., priority 2009, dated 2013) can be followed below.

pIC50: −log10 of the molar value. A value given as a limit tells only on which side of the number the result lay.

The first experiment concerns the target rhSYK (Homo sapiens, UniProt P43405).
Test: not given
As to conditions: read-out: rhSYK Activity; Table 117.
Take `Cc1cc(Nc2nccc(C(F)(F)F)n2)cc(-c2cnc(C(C)(O)c3ccc(C(N)=O)cc3)s2)c1` (single isomer, unassigned) [Example 117-21]: the pIC50 was above 7.00.

The experiment is the same for the next values; noted with them: read-out: rhSYK Activity; class symbol; where two forms are listed, one symbol per form.
For the compound `Cc1cc(Nc2nccc(C(F)(F)F)n2)cc(-c2cnc(C(C)(O)c3cccc(C(=O)O)c3)s2)c1` (single isomer, unassigned) [Example 4A-54], the pIC50 was above 7.00.
As for `Cc1cc(Nc2nccc(C(F)(F)F)n2)cc(-c2cnc(C(C)(O)c3cccc(C(=O)O)c3)s2)c1` (single isomer, unassigned) [Example 4A-55], the pIC50 is above 7.00.
Still for that read-out and setting: the value for `Cc1cc(Nc2nccc(C(F)(F)F)n2)cc(-c2cnc(C(C)(O)c3ccc(CC(=O)O)cc3)s2)c1` (single isomer, unassigned) [Example 4A-59] was above 7.00.
Turning to `Cc1cc(Nc2nccc(C(F)(F)F)n2)cc(-c2cnc(C(C)(O)c3ccc(CC(=O)O)cc3)s2)c1` (single isomer, unassigned) [Example 4A-60], the pIC50 was above 7.00.
As for `COc1cc(C(C)(O)c2ncc(-c3cc(C)cc(Nc4nccc(C(F)(F)F)n4)c3)s2)ccc1C(=O)O` (single isomer, unassigned) [Example 4A-65], the pIC50 was above 7.00.
On the same count and under the same terms, to `COc1cc(C(C)(O)c2ncc(-c3cc(C)cc(Nc4nccc(C(F)(F)F)n4)c3)s2)ccc1C(=O)O` (single isomer, unassigned) [Example 4A-66] belongs above 7.00; to `Cc1cc(Nc2nccc(C(F)(F)F)n2)cc(-c2cnc(C(C)(O)c3ccc(Br)nc3)s2)c1` (single isomer, unassigned) [Example 4A-68], above 7.00; to `Cc1cc(Nc2nccc(C(F)(F)F)n2)cc(-c2cnc(C(C)(O)c3ccc(Br)nc3)s2)c1` (single isomer, unassigned) [Example 4A-69], above 7.00.
In the case of `Cc1cc(Nc2nccc(C(F)(F)F)n2)cc(-c2cnc(C(O)(CO)C(F)(F)F)s2)c1` (single isomer, unassigned) [Example 6-8], the pIC50 is above 7.00.
On the same count and under the same terms, to `Cc1cc(Nc2nccc(C(F)(F)F)n2)cc(-c2cnc(C(O)(CO)C(F)(F)F)s2)c1` (single isomer, unassigned) [Example 6-9] belongs above 7.00.

Still in this experiment, the particulars now being: read-out: rhSYK activity; class symbol given.
Take `Cc1cc(Nc2nccc(C(F)(F)F)n2)cc(-c2cnc(C3(O)CCC(C(=O)O)CC3)s2)c1` (single isomer, unassigned) [33(1), trans-4-hydroxy-4-[5-(3-methyl-5-{[4-(trifluoromethyl)pyrimidin-2-yl]amino}phenyl)-1,3-thiazol-2-yl]cyclohexanecarboxylic acid]: the pIC50 is above 7.00.
Regarding `Cc1cc(Nc2nccc(C(F)(F)F)n2)cc(-c2cnc(C3(O)CCC(C(=O)O)CC3)s2)c1` (single isomer, unassigned) [33(2), cis-4-hydroxy-4-[5-(3-methyl-5-{[4-(trifluoromethyl)pyrimidin-2-yl]amino}phenyl)-1,3-thiazol-2-yl]cyclohexanecarboxylic acid], the pIC50 was above 7.00.

The next experiment concerns the target recombinant human SYK (GST-hSYK fusion protein) (Homo sapiens, UniProt P43405). Nature of the experiment: biochemical. As to conditions: Syk IC50, HTRF, recombinant human GST-SYK. (In TR-FRET formats the signal depends on donor and acceptor labels being close together.)
Description: Homogeneous Time-Resolved Fluorescence (HTRF) Assay for the Recombinant Human SYK Enzyme:
As to `Cc1cc(Nc2nccc(C(F)(F)F)n2)cc(-c2cnc(C3CCC4(CC3)OCCO4)s2)c1` [N-{3-[2-(1,4-diaxaspiro[4.5]dec-8-yl)-1,3-thiazol-5-yl]-5-methylphenyl}-4-(trifluoromethyl)pyrimidin-2-amine], the pIC50 is 6.53.
`Cc1cc(Nc2nccc(C(F)(F)F)n2)cc(-c2cnc(C3(O)CCCN(CC(=O)O)CC3)s2)c1` (stereo not drawn) [{4-hydroxy-4-[5-(3-methyl-5-{[4-(trifluoromethyl)pyrimidin-2-yl]amino}phenyl)-1,3-thiazol-2-yl]azepan-1-yl)acetic acid]: the pIC50 was 6.67.

Staying with this experiment, now noted: rhSYK Activity (IC50), recombinant human GST-SYK 5 pM, ATP 25 μM, biotinylated substrate peptide 250 nM, HTRF, 10-dose titration.
Take `Cc1cc(Nc2nccc(C(F)(F)F)n2)cc(-c2cnc(C3CCCCNC3=O)s2)c1` (stereo not drawn) [Example 144, 3-[5-(3-methyl-5-{[4-(trifluoromethyl)pyrimidin-2-yl]amino}phenyl)-1,3-thiazol-2-yl]azepan-2-one]: the pIC50 was above 7.00.
On the same count and under the same terms, to `Cc1cc(Nc2nccc(C(F)(F)F)n2)cc(-c2cnc(/C=C/c3ccc(C(=O)O)cc3)s2)c1` [Example 147] belongs above 7.00; to `Cc1cc(Nc2nccc(C(F)(F)F)n2)cc(-c2cnc(CCc3ccc(C(=O)O)cc3)s2)c1` [Example 148, 4-{2-[5-(3-methyl-5-{[4-(trifluoromethyl)pyrimidin-2-yl]amino}phenyl)-1,3-thiazol-2-yl]ethyl}benzoic acid], above 7.00; to `Cc1cc(Nc2nccc(C(F)(F)F)n2)cc(-c2cnc(C(C)(O)c3ccc(C(=O)O)nc3)s2)c1` (stereo not drawn) [Example 149, 5-{1-Hydroxy-1-[5-(3-methyl-5-{[4-(trifluoromethyl)pyrimidin-2-yl]amino}phenyl)-1,3-thiazol-2-yl]ethyl}pyridine-2-carboxylic acid], above 7.00.
Same read-out and setting: to `Cc1cc(Nc2nccc(C(F)(F)F)n2)cc(-c2cnc(C(C)(O)c3ccc(C(=O)O)cn3)s2)c1` (stereo not drawn) [Example 150, 6-{1-Hydroxy-1-[5-(3-methyl-5-{[4-(trifluoromethyl)pyrimidin-2-yl]amino}phenyl)-1,3-thiazol-2-yl]ethyl}pyridine-3-carboxylic acid] belongs above 7.00; to `Cc1cc(Nc2nccc(C)n2)cc(-c2cnc([C@@]3(O)CC[C@H](C(=O)O)C(C)(C)C3)s2)c1` [Example 152, (1S,4R)-4-Hydroxy-2,2-dimethyl-4-{5-[3-methyl-5-(4-methyl-pyrimidin-2-ylamino)-phenyl]-1,3-thiazol-2-yl}-cyclohexanecarboxylic acid], above 7.00; to `CCOP(=O)(OCC)[C@]1(O)CC[C@@](O)(c2ncc(-c3cc(C)cc(Nc4nccc(C(F)(F)F)n4)c3)s2)CC1` [Example 155(A), Diethyl{cis-1,4-dihydroxy-4-[5-(3-methyl-5-{[4-(trifluoromethyl)pyrimidin-2-yl]amino}phenyl)-1,3-thiazol-2-yl]cyclohexyl}phosphonate], above 7.00.
Turning to `Cc1cc(Nc2nccc(C(F)(F)F)n2)cc(-c2cnc(C3(O)CCC/C(=N\O)C3(C)C)s2)c1` (stereo not drawn) [Example 156, (3E)-3-(Hydroxyimino)-2,2-dimethyl-1-[5-(3-methyl-5-{[4-(trifluoromethyl)pyrimidin-2-yl]amino}phenyl)-1,3-thiazol-2-yl]cyclohexanol], the pIC50 is above 7.00.
On the same count and under the same terms, the value for `Cc1cc(Nc2nccc(-c3cnn(CC(C)(C)O)c3)n2)cc(-c2cnc(C3(O)CCC3)s2)c1` [Example 157, 1-{5-[3-({4-[1-(2-hydroxy-2-methylpropyl)-1H-pyrazol-4-yl]pyrimidin-2-yl}amino)-5-methylphenyl]-1,3-thiazol-2-yl}cyclobutanol] was above 7.00.
For the compound `Cc1cc(Nc2nccc(OCCO)n2)cc(-c2cnc(C(O)(CO)CO)s2)c1` [Example 158, 2-[5-(3-{[4-(2-hydroxyethoxy)pyrimidin-2-yl]amino}-5-methylphenyl)-1,3-thiazol-2-yl]propane-1,2,3-triol], the pIC50 is above 7.00.
Same read-out and setting: the value for `Cc1cc(Nc2nccc(OCCO)n2)cc(-c2cnc(C3(O)CCC(C(=O)O)C(C)(C)C3)s2)c1` (stereo not drawn) [Example 159, 4-hydroxy-4-[5-(3-{[4-(2-hydroxyethoxy)pyrimidin-2-yl]amino}-5-methylphenyl)-1,3-thiazol-2-yl]-2,2-dimethylcyclohexanecarboxylic acid] was above 7.00; that for `Cc1cc(Nc2nccc(C(F)(F)F)n2)cc(-c2cnc(C3(N)CCNC(=O)CC3)s2)c1` (stereo not drawn) [Example 162, 5-amino-5-[5-(3-methyl-5-{[4-(trifluoromethyl)pyrimidin-2-yl]amino}phenyl)-1,3-thiazol-2-yl]azepan-2-one] was above 7.00.
